The experiment relates to HBV rcDNA. In words: HepDE19 assay with bDNA quantitation of HBV rcDNA. The experiment is classed as cell-based, hepatitis B virus. The protocol:
HepDE19 Assay with bDNA Quantitation of HBV rcDNA:
HepDE19 cell culture system is a HepG2 (human hepatocarcinoma) derived cell line that supports HBV DNA replication and cccDNA formation in a tetracycline (Tet)-regulated manner and produces HBV rcDNA and a detectable reporter molecule dependent on the production and maintenance of cccDNA (Guo, et al., 2007, J. Virol. 81:12472-12484).
HepDE19 (50,000 cells/well) were plated in 96-well collagen-coated tissue-culture treated microtiter plates in DMEM/F12 medium supplemented with 10% fetal bovine serum, 1% penicillin-streptomycin and 1 μg/mL tetracycline and incubated in a humidified incubator at 37° C. and 5% CO2 overnight. Next day, the cells were switched to fresh medium without tetracycline and incubated for 4 hours at 37° C. and 5% CO2. The cells were treated with fresh Tet-free medium with compounds at concentrations starting at 25 μM and a serial, ½ log, 8-point, titration series in duplicate. The final DMSO concentration in the assay was 0.5%. The plates were incubated for 7 days in a humidified incubator at 37° C. and 5% CO2. Following a 7 day-incubation, the level of rcDNA present in the inhibitor-treated wells was measured using a Quantigene 2.0 bDNA assay kit (Affymetrix, Santa Clara, Calif.) with HBV specific custom probe set and manufacturers instructions. Concurrently, the effect of compounds on cell viability was assessed using replicate plates, plated at a density of 5,000 cells/well and incubated for 4 days, to determine the ATP content as a measure of cell viability using the cell-titer glo reagent (CTG; Promega Corporation, Madison, Wis.) as per manufacturer's instructions. The plates were read using a Victor luminescence plate reader (PerkinElmer Model 1420 Multilabel counter) and the relative luminescence units (RLU) data generated from each well was calculated as % inhibition of the untreated control wells and analyzed using XL-Fit module in Microsoft Excel to determine EC50 and EC90 (bDNA) and CC50 (CTG) values using a 4-parameter curve fitting algorithm.
Representative compounds of the invention were tested for their abilities to inhibit formation of relaxed circular DNA (rcDNA) in a HepDE19 assay, as described elsewhere herein.

Where [1] appears, read: Hepatitis B virus, HepDE19, 168 h, read-out: DE-19 bDNA EC50 (μM), HepDE19 cells, Tet-free medium, 7 day-incubation, rcDNA measured by Quantigene 2.0 bDNA assay, top concentration 25 μM.
[2] abbreviates: Hepatitis B virus, HepDE19, 168 h, HepDE19 cells, Tet-free medium, 7 day-incubation, rcDNA measured by Quantigene 2.0 bDNA assay, top concentration 25 μM, read-out: DE-19 bDNA EC50.
Where [3] appears, read: read-out: DE-19 bDNA EC50, HepDE19 cells, Tet-free medium, 7 day-incubation, rcDNA measured by Quantigene 2.0 bDNA assay, top concentration 25 μM.
Setting [4] is: HepDE19 cells, Tet-free medium, 7 day-incubation, rcDNA measured by Quantigene 2.0 bDNA assay, top concentration 25 μM, read-out: DE-19 bDNA EC50.

Like-named read-outs stand apart in the source and are kept apart here. Some results are limits rather than exact numbers.

For `COC(=O)NC1CCc2c1cn(C)c2C(=O)Nc1ccc(F)c(Cl)c1` (racemic) [Compound 1, methyl 1-(3-chloro-4-fluorophenylcarbamoyl)-2-methyl-2,4,5,6-tetrahydrocyclopenta[c]pyrrol-4-ylcarbamate], the EC50 under setting [1] was found to be 0.09 µM.

On to `CNC(=O)NC1CCc2c1cn(C)c2C(=O)Nc1ccc(F)c(Cl)c1` (racemic) [Compound 3, N-(3-chloro-4-fluorophenyl)-2-methyl-4-(3-methylureido)-2,4,5,6-tetrahydrocyclopenta[c]pyrrole-1-carboxamide], for which the EC50 under setting [1] is 0.94 µM.

For the compound `CNC(=O)NC1CCc2c1c[nH]c2C(=O)Nc1ccc(F)c(Cl)c1` (racemic) [Compound 8, N-(3-chloro-4-fluorophenyl)-4-(3-methylureido)-2,4,5,6-tetrahydrocyclopenta[c]pyrrole-1-carboxamide], under setting [2], the EC50 was 18 µM.

With `CC(C)OC(=O)C1(COC(=O)NC2CCc3c2cn(C)c3C(=O)Nc2ccc(F)c(Cl)c2)CC(F)(F)C1` (racemic) [Compound 46, isopropyl 1-((((1-((3-chloro-4-fluorophenyl)carbamoyl)-2-methyl-2,4,5,6-tetrahydrocyclopenta[c]pyrrol-4-yl)carbamoyl)oxy)methyl)-3,3-difluorocyclobutane-1-carboxylate], the EC50 under setting [2] was 2.3 µM.

In the case of `Cn1cc2c(c1C(=O)Nc1ccc(F)c(Cl)c1)CCC2NC(=O)OCC1(C(=O)O)CC(F)(F)C1` (racemic) [Compound 53, 1-((((1-((3-chloro-4-fluorophenyl)carbamoyl)-2-methyl-2,4,5,6-tetrahydrocyclopenta [c]pyrrol-4-yl)carbamoyl)oxy)methyl)-3,3-difluorocyclobutane-1-carboxylic acid], the EC50 under setting [2] is 2.7 µM.

With `Cn1cc2c(c1C(=O)Nc1ccc(F)c(Cl)c1)CCC2NC(=O)OCc1nc[nH]n1` (racemic) [Compound 54, (1H-1,2,4-triazol-3-yl)methyl (1-((3-chloro-4-fluorophenyl)carbamoyl)-2-methyl-2,4,5,6-tetrahydrocyclopenta[c]pyrrol-4-yl)carbamate], the EC50 under setting [2] turned out to be 0.06 µM.

`Cn1cc2c(c1C(=O)Nc1ccc(F)c(Cl)c1)CCC2NC(=O)OCc1nn[nH]n1` (racemic) [Compound 148, (2H-tetrazol-5-yl)methyl (1-((3-chloro-4-fluorophenyl)carbamoyl)-2-methyl-2,4,5,6-tetrahydrocyclopenta[c]pyrrol-4-yl)carbamate]: under setting [2], the EC50 worked out at 1.9 µM.

As for `COC(=O)NC1CCc2c1cn(C)c2C(=O)Nc1ccc(F)c(Cl)c1` (single isomer, unassigned) [Compound 4, Methyl 1-(3-chloro-4-fluorophenylcarbamoyl)-2-methyl-2,4,5,6-tetrahydrocyclopenta[c] pyrrol-4-ylcarbamate], the EC50 under setting [3] came to 0.05 µM.

On to `COC(=O)NC1CCc2c1cn(C)c2C(=O)Nc1ccc(F)c(Cl)c1` (single isomer, unassigned) [Compound 5, Methyl 1-(3-chloro-4-fluorophenylcarbamoyl)-2-methyl-2,4,5,6-tetrahydrocyclopenta[c] pyrrol-4-ylcarbamate], for which the EC50 under setting [3] was 0.99 µM.

With `CNC(=O)NC1CCc2c1c[nH]c2C(=O)Nc1ccc(F)c(Cl)c1` (single isomer, unassigned) [Compound 10, N-(3-Chloro-4-fluorophenyl)-4-(3-methylureido)-2,4,5,6-tetrahydrocyclopenta[c]pyrrole-1-carboxamide], the EC50 under setting [4] turned out to be 16 µM.

Regarding `CNC(=O)NC1CCc2c1c[nH]c2C(=O)Nc1ccc(F)c(Cl)c1` (single isomer, unassigned) [Compound 11, N-(3-Chloro-4-fluorophenyl)-4-(3-methylureido)-2,4,5,6-tetrahydrocyclopenta[c]pyrrole-1-carboxamide], under setting [4], the EC50 was 2.4 µM.

`Cn1cc2c(c1C(=O)Nc1ccc(F)c(Cl)c1)CCC2NS(=O)(=O)C1CC1` (single isomer, unassigned) [Compound 13, N-(3-Chloro-4-fluorophenyl)-4-(cyclopropanesulfonamido)-2-methyl-2,4,5,6-tetrahydrocyclopenta [c]pyrrole-1-carboxamide]: the EC50 under setting [4] was 6.8 µM.

For `Cn1cc2c(c1C(=O)Nc1ccc(F)c(Cl)c1)CCC2NS(=O)(=O)C1CC1` (single isomer, unassigned) [Compound 14, N-(3-Chloro-4-fluorophenyl)-4-(cyclopropanesulfonamido)-2-methyl-2,4,5,6-tetrahydrocyclopenta [c]pyrrole-1-carboxamide], the EC50 under setting [4] was determined as 0.07 µM.

For the compound `CCn1cc2c(c1C(=O)Nc1ccc(F)c(Cl)c1)CCC2NS(=O)(=O)C1CC1` (single isomer, unassigned) [Compound 15, N-(3-Chloro-4-fluorophenyl)-4-(cyclopropanesulfonamido)-2-ethyl-2,4,5,6-tetrahydrocyclopenta[c]pyrrole-1-carboxamide], the EC50 under setting [4] is not below 25 µM.

Regarding `CCn1cc2c(c1C(=O)Nc1ccc(F)c(Cl)c1)CCC2NS(=O)(=O)C1CC1` (single isomer, unassigned) [Compound 16, N-(3-Chloro-4-fluorophenyl)-4-(cyclopropanesulfonamido)-2-ethyl-2,4,5,6-tetrahydrocyclopenta[c]pyrrole-1-carboxamide], the EC50 under setting [4] came out at 0.13 µM.

As to `CCn1cc2c(c1C(=O)Nc1ccc(F)c(Cl)c1)CCC2NC(=O)C1CC1` (single isomer, unassigned) [Compound 17, N-(3-Chloro-4-fluorophenyl)-4-(cyclopropanecarboxamido)-2-ethyl-2,4,5,6-tetrahydrocyclopenta[c]pyrrole-1-carboxamide], under setting [2], the EC50 was 4.9 µM.

In the case of `CCn1cc2c(c1C(=O)Nc1ccc(F)c(Cl)c1)CCC2NC(=O)OCc1ncn(C)n1` (single isomer, unassigned) [Compound 19, (1-Methyl-1H-1,2,4-triazol-3-yl)methyl (1-((3-chloro-4-fluorophenyl)carbamoyl)-2-ethyl-2,4,5,6-tetrahydrocyclopenta[c]pyrrol-4-yl)carbamate], the EC50 under setting [4] was 2.1 µM.

For `CCn1cc2c(c1C(=O)Nc1ccc(F)c(Cl)c1)CCC2NC(=O)OCc1ncn(C)n1` (single isomer, unassigned) [Compound 20, (1-Methyl-1H-1,2,4-triazol-3-yl)methyl (1-((3-chloro-4-fluorophenyl)carbamoyl)-2-ethyl-2,4,5,6-tetrahydrocyclopenta[c]pyrrol-4-yl)carbamate], the EC50 under setting [4] is 0.18 µM.

Turning to `Cn1ccc(COC(=O)NC2CCc3c2cn(C)c3C(=O)Nc2ccc(F)c(Cl)c2)n1` (single isomer, unassigned) [Compound 21, (1-Methyl-1H-pyrazol-3-yl)methyl(1-((3-chloro-4-fluorophenyl)carbamoyl)-2-methyl-2,4,5,6-tetrahydrocyclopenta[c]pyrrol-4-yl)carbamate], the EC50 under setting [3] is 0.04 µM.

Regarding `Cn1ccc(COC(=O)NC2CCc3c2cn(C)c3C(=O)Nc2ccc(F)c(Cl)c2)n1` (single isomer, unassigned) [Compound 22, (1-Methyl-1H-pyrazol-3-yl)methyl(1-((3-chloro-4-fluorophenyl)carbamoyl)-2-methyl-2,4,5,6-tetrahydrocyclopenta[c]pyrrol-4-yl)carbamate], under setting [3], the EC50 turned out to be 0.78 µM.

Consider `Cn1cc2c(c1C(=O)Nc1ccc(F)c(Cl)c1)CCC2NC(=O)C1CC1` (single isomer, unassigned) [Compound 23, N-(3-Chloro-4-fluorophenyl)-4-(cyclopropanecarboxamido)-2-methyl-2,4,5,6-tetrahydrocyclopenta [c]pyrrole-1-carboxamide], for which the EC50 under setting [4] turned out to be 0.12 µM.

With `Cn1cc2c(c1C(=O)Nc1ccc(F)c(Cl)c1)CCC2NC(=O)C1CC1` (single isomer, unassigned) [Compound 24, N-(3-Chloro-4-fluorophenyl)-4-(cyclopropanecarboxamido)-2-methyl-2,4,5,6-tetrahydrocyclopenta [c]pyrrole-1-carboxamide], under setting [4], the EC50 stood at 1.6 µM.

`Cn1cnc(COC(=O)NC2CCc3c2cn(C)c3C(=O)Nc2ccc(F)c(Cl)c2)n1` (single isomer, unassigned) [Compound 25, (1-Methyl-1H-1,2,4-triazol-3-yl)methyl (1-((3-chloro-4-fluorophenyl)carbamoyl)-2-methyl-2,4,5,6-tetrahydrocyclopenta[c]pyrrol-4-yl)carbamate]: the EC50 under setting [4] stood at 3.5 µM.

For the origin of these results see patent publication US11566002B2, “Substituted tetrahydrocyclopenta[C]pyrroles, substituted dihydropyrrolizines, analogues thereof, and methods using same” (priority 2018, dated 2023).
